Here are results for 1 molecule from PubChem BioAssay (NCI).

In assay [1] the test system is SNB-75 CNS. In words: NCI tumour cell line growth inhibition, 48 h.
The test system of assay [2] is HL-60(TB) leukemia. In words: NCI tumour cell line growth inhibition, 48 h.

Structures are written as SMILES.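 Dose response: 5 concentrations. Exposure: 48 h. Format: 96-well plates. Endpoint: linear interpolation; highest concentration if not reached. Definition used: TGI = concentration required for complete inhibition of growth.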 Bounds are passed on as bounds.

Turning to `CC(=O)OCC1OC(n2c(-c3ccc(C)cc3)cc(-c3ccco3)c(C#N)c2=O)C(OC(C)=O)C(OC(C)=O)C1OC(C)=O` (configuration not stated), the TGI in assay [1] and in assay [2] was over 100 µM throughout.
